Data: PMC10879502, “Linking ATP and allosteric sites to achieve superadditive binding with bivalent EGFR kinase inhibitors” (Communications Chemistry, 2024)
Several values for one entry are separate records, joined by “and”; a condition that tells them apart may be missing. Equal values may be shown once. Read-outs that look alike come from different tables or passages of the source. Values belong to the compound of their own block, whether it stands above or below them.

Assays:
[1] = target: T1, EGFR L858R/T790M/C797S (LRTMCS) kinase domain (Homo sapiens, UniProt P00533, C797S/L858R/T790M); experiment: HTRF KinEASE-TK kinase activity assay; assay type: biochemical
T1 construct: The EGFR kinase domain (residues 696–1022) was cloned into pTriEx; 6xHis (N, cleaved yes); GST (N, cleaved yes); made in house; host or cells: SF9 insect cells, baculovirus

Ba/F3 cells, L858R EGFR = experiment: Ba/F3 resazurin antiproliferative assay; assay type: cell-based; conditions: Mus musculus, BaF3, 72 h, Ba/F3, 72 h; read-out: EGFR EC50, LR
Protocol: (§1) H1975 and HCC827 cells were obtained from the lab of Dr. Pasi Jänne (Dana-Farber Cancer Institute, 2022) cultured at 37 °C in RPMI 1640 media (Corning, 1004-CV) supplemented with 10% fetal bovine serum (Tissue Culture Biologicals, 35-010-CV) and 1% penicillin and streptomycin (P/S, Corning, 30-002-CI) and seeded overnight in a 96-well plate at a density of 60000 cells/mL. Cells were dosed with inhibitors to a final DMSO 0.5% in triplicate for 37 °C for 72 h. Cellular inhibition of growth was assessed by MTT viability assay according to the manufactures protocol (OZ Biosciences). Parental Ba/F3 cells was a generous gift from the laboratory of Dr. David Weinstock (in 2014), Dr. Pasi Jänne (2020) both of the Dana-Farber Cancer Institute and was used to generate the wildtype EGFR, L858R, and L858R/T790M EGFR mutant Ba/F3 cells[52],[67]. Ba/F3 cells were all cultured in RPMI1640 media with 10% fetal bovine serum and 1% penicillin and streptomycin. The Ba/F3 cell lines were tested negative for Mycoplasma using Mycoplasma Plus PCR Primer Set (Agilent) and were passaged and/or used for no longer than 4 weeks for all experiments. Assay reagents were purchased from MilliporeSigma (Cat# R7017-5G). Ba/F3 cells were plated and treated with increasing concentrations of inhibitors in triplicate for 72 h. Compounds were dispensed using the Tecan D300e Digital Dispenser. […] All experiments were repeated at least 3 times and values were reported as an average with standard deviation.

[2] = test system: Ba/F3 cells, L858R/T790M EGFR; experiment: Ba/F3 resazurin antiproliferative assay; assay type: cell-based; conditions: Mus musculus, BaF3; Ba/F3, 72 h; read-out: EGFR EC50, LR/TM
Protocol: as §1

[3] = test system: Ba/F3 cells, LR/TM/CS EGFR; experiment: Ba/F3 resazurin antiproliferative assay; assay type: cell-based; conditions: Mus musculus, BaF3; Ba/F3, 72 h
Protocol: as §1

[4] = test system: Ba/F3 cells, wildtype EGFR; experiment: Ba/F3 resazurin antiproliferative assay; assay type: cell-based; conditions: Mus musculus, BaF3; Ba/F3, 72 h; read-out: EGFR EC50, wt
Protocol: as §1

[5] = test system: EGFR phosphorylation (pY1068) in H1975 cells; experiment: Western blot; assay type: cell-based, human
Protocol: H1975, H3255, H3255GR and HCC827 lung adenocarcinoma cells (obtained from Dr. Pasi Jänne in Dana-Farber Cancer Institute, 2022) were cultured in RPMI 1640 media (Corning, 1004-CV) supplemented with 10% FBS (Tissue Culture Biologicals, 35-010-CV) and 1% penicillin-streptomycin (P/S, Corning, 30-002-CI). All cell lines were tested negative for Mycoplasma using Myco-Sniff-Rapid™ Mycoplasma Luciferase Detection Kit Plus PCR Primer Set (MP biomedicals, 0930504-CF) and were passaged and/or used for no longer than 4 weeks for all experiments H1975 and HCC-827 cells were seeded in 6-well plates with 400,000 cells per well and incubated overnight. H3255 and H3255GR cells were seeded in 12-well plates with 200,000 cells per well and were grown to confluency after 48 h. Culture medium was removed, cells washed with PBS, and lysed with lysis buffer containing 5 M NaCl, 1 M TRIS pH 8.0, 10% SDS, 10% Triton X-100 and a tablet of protease and phosphatase inhibitor. Protein lysate concentration was analyzed using Pierce BCA kit (ThermoFisher, 23225). Protein samples (10 µg) were resolved on hand-cast Criterion Tris-HCl protein gels. Primary antibodies used; phospho-EGFR (Tyr1068; #2234, 1:1,000), EGFR (#4267; 1:1,000), phospho-AKT (Ser473; #4060, 1:1,000), AKT (#9272, 1:1,000), phospho-ERK1/2 (Thr202/Tyr204; #4370, 1:1,000), and ERK1/2 (#4695, 1:1,000) antibodies; were purchased from Cell Signaling Technology. Secondary Goat anti-rabbit IgG starbright blue 700 (Biorad, 64484700) and Anti-tubulin hFAB Rhodamine Tubulin (Bio-Rad, 64512248). Western blots were visualized with the ChemiDoc MP imager (Bio-Rad) utilizing the Image Lab Touch Software (version 2.4.0.03). All Western blot images are representatives of at least 3 independent replicate experiments.

CIT = CIT (Homo sapiens, UniProt O14578); experiment: KINOMEscan; assay type: binding; conditions: 1 μM
EPHB1 = EPHB1 (Homo sapiens, UniProt P54762); experiment: KINOMEscan; assay type: binding; conditions: 1 μM
FLT3(N841I) = target: T2, FLT3(N841I) (Homo sapiens, UniProt P36888, N841I); experiment: KINOMEscan; assay type: binding; conditions: 1 μM
T2 construct: purchased Eurofins DiscoverX Corporation

FLT3-autoinhibited = target: T3, FLT3-autoinhibited (Homo sapiens, UniProt P36888); experiment: KINOMEscan; assay type: binding; conditions: 1 μM
T3 construct: purchased Eurofins DiscoverX Corporation

[6] = target: T4, JAK3(JH1domain-catalytic) (Homo sapiens, UniProt P52333); experiment: KINOMEscan; assay type: binding; conditions: 1 μM
T4 construct: JAK3(JH1domain-catalytic); purchased Eurofins DiscoverX (KINOMEscan)

PIK3CA(E542K) = PIK3CA(E542K) (Homo sapiens, UniProt P42336, E542K); experiment: KINOMEscan; assay type: binding; conditions: 1 μM
QSK = QSK (Homo sapiens, UniProt Q9Y2K2); experiment: KINOMEscan; assay type: binding; conditions: 1 μM
ROS1 = ROS1 (Homo sapiens, UniProt P08922); experiment: KINOMEscan; assay type: binding; conditions: 1 μM
SNARK = SNARK (Homo sapiens, UniProt Q9H093); experiment: KINOMEscan; assay type: binding; conditions: 1 μM
STK35 = STK35 (Homo sapiens, UniProt Q8TDR2); experiment: KINOMEscan; assay type: binding; conditions: 1 μM
[7] = enzyme 0.02 nM, ATP 100 µM, read-out: Biochemical EGFR IC50, LRTMCS

T4 sequence (P52333 822-1111 limits assumed): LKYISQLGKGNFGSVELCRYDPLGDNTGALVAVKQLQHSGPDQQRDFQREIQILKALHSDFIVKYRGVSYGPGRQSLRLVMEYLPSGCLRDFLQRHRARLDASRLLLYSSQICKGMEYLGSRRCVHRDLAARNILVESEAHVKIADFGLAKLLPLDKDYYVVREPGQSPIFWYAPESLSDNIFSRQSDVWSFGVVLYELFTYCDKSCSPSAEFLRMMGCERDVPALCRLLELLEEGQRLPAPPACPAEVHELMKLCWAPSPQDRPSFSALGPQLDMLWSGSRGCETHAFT
Chain of ROS1 (P08922 28-2347): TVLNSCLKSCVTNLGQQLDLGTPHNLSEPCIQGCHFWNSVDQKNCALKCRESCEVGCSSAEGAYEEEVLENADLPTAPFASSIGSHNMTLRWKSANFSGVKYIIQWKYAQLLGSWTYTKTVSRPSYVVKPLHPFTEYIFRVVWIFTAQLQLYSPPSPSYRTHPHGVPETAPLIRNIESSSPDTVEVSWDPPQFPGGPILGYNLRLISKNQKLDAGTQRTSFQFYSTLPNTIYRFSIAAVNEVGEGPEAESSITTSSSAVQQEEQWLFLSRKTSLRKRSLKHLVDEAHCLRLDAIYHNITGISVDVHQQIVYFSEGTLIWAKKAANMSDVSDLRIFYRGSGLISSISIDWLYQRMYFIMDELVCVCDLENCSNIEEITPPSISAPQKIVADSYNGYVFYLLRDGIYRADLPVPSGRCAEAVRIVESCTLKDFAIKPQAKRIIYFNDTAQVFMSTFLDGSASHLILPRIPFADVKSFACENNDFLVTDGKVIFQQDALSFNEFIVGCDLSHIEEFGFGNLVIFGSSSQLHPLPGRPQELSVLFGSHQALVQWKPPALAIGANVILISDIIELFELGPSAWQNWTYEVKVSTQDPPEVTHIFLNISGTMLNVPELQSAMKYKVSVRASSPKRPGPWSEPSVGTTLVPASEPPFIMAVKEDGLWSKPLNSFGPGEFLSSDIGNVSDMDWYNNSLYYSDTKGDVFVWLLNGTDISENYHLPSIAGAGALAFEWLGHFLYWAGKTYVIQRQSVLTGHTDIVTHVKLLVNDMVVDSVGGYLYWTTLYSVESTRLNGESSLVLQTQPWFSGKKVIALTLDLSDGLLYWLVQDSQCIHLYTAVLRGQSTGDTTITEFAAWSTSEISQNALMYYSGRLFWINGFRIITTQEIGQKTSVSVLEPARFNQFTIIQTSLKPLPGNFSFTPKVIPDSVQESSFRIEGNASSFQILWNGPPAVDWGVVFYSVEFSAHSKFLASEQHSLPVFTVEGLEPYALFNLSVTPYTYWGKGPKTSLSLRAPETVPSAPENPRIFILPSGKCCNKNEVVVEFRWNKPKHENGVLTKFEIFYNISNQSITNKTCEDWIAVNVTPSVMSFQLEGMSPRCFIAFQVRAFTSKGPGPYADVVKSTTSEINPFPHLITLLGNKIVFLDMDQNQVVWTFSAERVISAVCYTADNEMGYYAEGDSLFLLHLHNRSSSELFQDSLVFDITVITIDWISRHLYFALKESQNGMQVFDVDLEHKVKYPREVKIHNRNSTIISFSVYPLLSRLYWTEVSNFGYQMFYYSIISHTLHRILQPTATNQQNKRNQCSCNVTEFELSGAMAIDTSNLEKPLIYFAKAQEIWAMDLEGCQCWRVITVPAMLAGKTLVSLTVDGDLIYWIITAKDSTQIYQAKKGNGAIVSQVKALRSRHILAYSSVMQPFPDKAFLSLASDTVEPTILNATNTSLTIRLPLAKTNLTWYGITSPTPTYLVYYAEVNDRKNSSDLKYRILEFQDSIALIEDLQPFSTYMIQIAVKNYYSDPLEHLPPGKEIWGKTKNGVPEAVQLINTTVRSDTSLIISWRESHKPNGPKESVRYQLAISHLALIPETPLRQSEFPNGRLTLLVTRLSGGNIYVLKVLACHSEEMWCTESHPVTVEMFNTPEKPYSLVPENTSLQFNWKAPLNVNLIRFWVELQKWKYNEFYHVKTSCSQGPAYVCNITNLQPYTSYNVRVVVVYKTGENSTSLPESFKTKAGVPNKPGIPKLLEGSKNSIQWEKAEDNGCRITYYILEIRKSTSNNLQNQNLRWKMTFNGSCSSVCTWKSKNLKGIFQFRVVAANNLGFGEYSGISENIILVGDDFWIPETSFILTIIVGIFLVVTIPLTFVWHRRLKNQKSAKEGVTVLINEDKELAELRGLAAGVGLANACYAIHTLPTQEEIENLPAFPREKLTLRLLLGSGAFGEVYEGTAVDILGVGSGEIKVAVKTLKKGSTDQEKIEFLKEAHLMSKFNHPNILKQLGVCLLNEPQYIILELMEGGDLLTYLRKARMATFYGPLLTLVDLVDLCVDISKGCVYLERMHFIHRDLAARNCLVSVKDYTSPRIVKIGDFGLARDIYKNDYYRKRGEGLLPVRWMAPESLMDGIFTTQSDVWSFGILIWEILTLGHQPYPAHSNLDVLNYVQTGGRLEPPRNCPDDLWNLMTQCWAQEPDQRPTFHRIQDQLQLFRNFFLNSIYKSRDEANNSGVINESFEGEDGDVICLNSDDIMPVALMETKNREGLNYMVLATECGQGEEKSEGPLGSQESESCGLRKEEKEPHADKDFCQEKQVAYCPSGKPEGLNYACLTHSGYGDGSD
Chain of STK35 (Q8TDR2 whole entry): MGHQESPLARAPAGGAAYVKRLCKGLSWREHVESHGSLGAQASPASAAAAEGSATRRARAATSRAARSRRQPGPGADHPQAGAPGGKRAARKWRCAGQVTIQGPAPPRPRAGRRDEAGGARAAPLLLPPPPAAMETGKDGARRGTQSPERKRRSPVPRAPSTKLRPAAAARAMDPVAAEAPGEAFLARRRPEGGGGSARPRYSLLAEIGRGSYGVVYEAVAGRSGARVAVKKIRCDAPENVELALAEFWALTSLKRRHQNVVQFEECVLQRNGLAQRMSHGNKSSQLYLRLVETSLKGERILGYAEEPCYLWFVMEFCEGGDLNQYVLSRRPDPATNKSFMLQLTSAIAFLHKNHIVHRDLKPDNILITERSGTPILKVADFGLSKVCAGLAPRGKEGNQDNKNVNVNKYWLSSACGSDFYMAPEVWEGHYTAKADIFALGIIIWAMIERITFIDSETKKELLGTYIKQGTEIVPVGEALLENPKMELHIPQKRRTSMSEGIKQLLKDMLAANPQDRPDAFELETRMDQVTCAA
Chain of QSK (Q9Y2K2 whole entry): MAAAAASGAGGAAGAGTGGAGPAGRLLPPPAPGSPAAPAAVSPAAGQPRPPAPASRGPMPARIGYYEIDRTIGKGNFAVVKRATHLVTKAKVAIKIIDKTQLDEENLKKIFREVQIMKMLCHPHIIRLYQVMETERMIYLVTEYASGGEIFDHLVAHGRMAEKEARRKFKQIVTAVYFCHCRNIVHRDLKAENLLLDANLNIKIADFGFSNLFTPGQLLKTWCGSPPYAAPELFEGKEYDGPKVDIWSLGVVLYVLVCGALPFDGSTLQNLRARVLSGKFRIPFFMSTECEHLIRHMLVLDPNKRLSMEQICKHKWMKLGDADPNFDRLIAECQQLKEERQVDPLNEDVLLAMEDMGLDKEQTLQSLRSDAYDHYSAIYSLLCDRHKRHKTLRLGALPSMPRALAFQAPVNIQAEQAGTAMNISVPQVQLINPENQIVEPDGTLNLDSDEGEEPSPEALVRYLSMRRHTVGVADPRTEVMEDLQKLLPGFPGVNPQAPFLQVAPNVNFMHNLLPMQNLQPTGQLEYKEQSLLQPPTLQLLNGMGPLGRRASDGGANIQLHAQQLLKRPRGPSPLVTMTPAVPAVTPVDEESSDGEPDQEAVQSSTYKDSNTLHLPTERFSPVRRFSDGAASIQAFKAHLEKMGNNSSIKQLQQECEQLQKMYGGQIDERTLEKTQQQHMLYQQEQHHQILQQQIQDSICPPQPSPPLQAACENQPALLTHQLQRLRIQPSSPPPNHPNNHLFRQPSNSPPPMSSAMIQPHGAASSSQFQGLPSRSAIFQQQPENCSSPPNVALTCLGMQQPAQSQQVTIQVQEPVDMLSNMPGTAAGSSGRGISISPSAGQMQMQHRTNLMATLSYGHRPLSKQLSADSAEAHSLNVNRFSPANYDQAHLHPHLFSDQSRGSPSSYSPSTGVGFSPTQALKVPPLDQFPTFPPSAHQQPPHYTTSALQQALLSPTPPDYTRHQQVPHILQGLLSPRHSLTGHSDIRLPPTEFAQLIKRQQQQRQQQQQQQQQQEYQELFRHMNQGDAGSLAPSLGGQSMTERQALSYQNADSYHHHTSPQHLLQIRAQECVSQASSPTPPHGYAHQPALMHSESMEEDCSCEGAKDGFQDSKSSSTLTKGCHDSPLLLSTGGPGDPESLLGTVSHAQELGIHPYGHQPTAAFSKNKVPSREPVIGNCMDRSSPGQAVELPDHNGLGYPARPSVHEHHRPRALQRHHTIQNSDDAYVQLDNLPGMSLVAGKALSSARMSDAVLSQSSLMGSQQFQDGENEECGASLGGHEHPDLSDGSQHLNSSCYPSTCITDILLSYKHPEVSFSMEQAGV
Chain of SNARK (Q9H093 whole entry): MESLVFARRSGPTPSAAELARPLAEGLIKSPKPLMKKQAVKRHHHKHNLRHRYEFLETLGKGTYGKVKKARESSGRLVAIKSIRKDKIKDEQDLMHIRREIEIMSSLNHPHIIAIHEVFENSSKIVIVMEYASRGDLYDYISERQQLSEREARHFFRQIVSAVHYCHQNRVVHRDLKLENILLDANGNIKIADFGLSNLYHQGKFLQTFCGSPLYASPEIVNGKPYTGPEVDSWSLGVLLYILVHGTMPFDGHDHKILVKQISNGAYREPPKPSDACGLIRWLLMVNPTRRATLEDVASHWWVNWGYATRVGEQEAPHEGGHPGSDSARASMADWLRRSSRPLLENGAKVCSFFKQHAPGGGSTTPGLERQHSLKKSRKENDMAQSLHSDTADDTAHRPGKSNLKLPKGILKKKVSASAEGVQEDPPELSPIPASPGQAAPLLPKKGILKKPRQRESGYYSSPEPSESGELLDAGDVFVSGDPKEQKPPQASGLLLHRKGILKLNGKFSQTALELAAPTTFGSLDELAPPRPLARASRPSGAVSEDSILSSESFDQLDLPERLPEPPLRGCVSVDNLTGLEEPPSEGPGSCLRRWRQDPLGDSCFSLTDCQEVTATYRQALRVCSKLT

activity ([1]; LRTMCS, [Inhibitor] 1.3e-5 nM, read-out: percent inhibition): 93.5% and 92.2% and 100%
activity ([1]; LRTMCS, [Inhibitor] 3.18e-5 nM, read-out: percent inhibition): 90.3% (2×) and 95.9%
activity ([1]; LRTMCS, [Inhibitor] 7.78e-5 nM, read-out: percent inhibition): 71% and 67.2% and 70.8%
activity at 190.4 fM ([1]; LRTMCS, [Inhibitor] 0.000190441 nM, read-out: percent inhibition): 39.1%
activity at 466 fM ([1]; LRTMCS, [Inhibitor] 0.000465979 nM, read-out: percent inhibition): 22.7%
activity at 1.14 pM ([1]; LRTMCS, [Inhibitor] 0.00114018 nM, read-out: percent inhibition): 13.5%
activity at 2.79 pM ([1]; LRTMCS, [Inhibitor] 0.00278983 nM, read-out: percent inhibition): 8.55%
activity at 6.826 pM ([1]; LRTMCS, [Inhibitor] 0.00682626 nM, read-out: percent inhibition): 4.28%
activity at 16.7 pM ([1]; LRTMCS, [Inhibitor] 0.0167028 nM, read-out: percent inhibition): 1.88%
IC50 [1, 7]: 0.064 ± 0.004 nM
IC50 ([1]; read-out: IC50, LRTMCS): 0.051 to 0.064 nM
EC50 (Ba/F3 cells, L858R EGFR): 5300 nM
EC50 [2]: > 10000 nM
EC50 [3]: 6500 nM
EC50 [4]: 5100 nM
SMILES: CSc1nc(-c2cccc(NC(=O)c3cccc4c3NC(=O)c3ccccc3N4)c2)c(-c2ccnc(NC(C)=O)c2)[nH]1 [Compound 2]
suppression of EGFR phosphorylation ([5]; H1975, 6 h): also effective in H1975 cells, however to a lesser extent than 4

SMILES: C=CC(=O)Nc1ccc(OC)c(Nc2cc(-c3[nH]c(CC)nc3-c3cccc(NC(=O)c4cccc5c4NC(=O)c4ccccc4N5)c3)ccn2)c1 [Compound 4]
IC50 [1, 7]: 1.8 ± 0.3 nM
IC50 improvement over orthosteric-only 7, LRTMCS ([1]; reversible inhibition): 100 fold
EC50 (Ba/F3 cells, L858R EGFR): 220 nM
EC50 [2]: 770 nM
EC50 [3]: > 10000 nM
EC50 [4]: 950 nM
concentration suppressing LRTM phosphorylation (pY1068), pERK and pAKT ([5]; H1975, dosed for 6 h): below 1 µM
POC (CIT): 6.3% of control
POC (EPHB1): 92% of control
POC (FLT3(N841I)): 97% of control
POC (FLT3-autoinhibited): 100% of control
POC [6]: 100% of control
POC (PIK3CA(E542K)): 100% of control
POC (QSK): 100% of control
POC (ROS1): 80% of control
POC (SNARK): 100% of control
POC (STK35): 69% of control
